According to article PMC9821293, “Anammox Bacterial S-Adenosyl-L-Methionine Dependent Methyltransferase Crystal Structure and Its Interaction with Acyl Carrier Proteins” (International Journal of Molecular Sciences, 2023):

Molecular target: T1, AmxMT1 (Candidatus Brocadia fulgida, UniProt A0A0M2USF2)
T1 construct: gene BROFUL_02287; five N-terminal residues removed; C-terminal TEV site and 6xHis tag, His tag cleaved; codon-optimised, pET28b, E. coli C43(DE3) with pGro7; one molecule in the asymmetric unit
T1 sequence (A0A0M2USF2 6-354): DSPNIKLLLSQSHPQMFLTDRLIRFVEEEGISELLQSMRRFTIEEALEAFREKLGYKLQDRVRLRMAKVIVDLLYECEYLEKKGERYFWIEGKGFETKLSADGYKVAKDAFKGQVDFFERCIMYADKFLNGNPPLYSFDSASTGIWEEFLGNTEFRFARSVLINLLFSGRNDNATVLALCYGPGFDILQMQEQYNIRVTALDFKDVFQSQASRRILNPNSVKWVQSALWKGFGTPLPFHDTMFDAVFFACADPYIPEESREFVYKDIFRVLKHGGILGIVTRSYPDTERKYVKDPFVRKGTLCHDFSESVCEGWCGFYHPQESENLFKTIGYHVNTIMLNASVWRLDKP
Test: X-ray crystal structure of the complex (SAD phasing, molecular replacement)
Type: binding
Details: SAM (2.25 mM) added for crystallization, SAH found in the crystal; 5 mM DTT; HEPES pH 7.0, PEG 2000, 20 °C; cosubstrate pocket between core domain and inserted helix

Nc1ncnc2c1ncn2[C@@H]1O[C@H](CSCC[C@H](N)C(=O)O)[C@@H](O)[C@H]1O [SAH]
X-ray crystal structure of the complex (SAD phasing, molecular replacement): S-adenosyl-L-homocysteine (SAH) is located in the pocket between the core domain and inserted helix
